What is called IC50 is the concentration at which inhibition is half-maximal.

SMILES strings stand for the structures. Read-outs that look alike come from different tables or passages of the source.

Series [1] has as its system HCV replicon cells Huh 9B. The series can be described thus: HCV replicon assay (luciferase readout). In kind it is cell-based. In outline: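 Compounds, made up at twice final strength (final DMSO 1%), were added to subgenomic replicon cells one day after plating. Incubation then ran 72 h at 37 °C, 5% CO2, without G418. Replication was quantified as firefly luciferase luminescence in lysed cells, with cytotoxicity assessed on a duplicate clear plate.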
(Replicon systems follow genome replication, usually without infectious particles.)

Series [2] concerns HCV replicon cells Huh 9B. In kind it is cell-based.
The mark [3] stands for this setting: Hepatitis C virus, 72 h, concentration reducing replicon level (luciferase activity) by 50% vs untreated cell control, 72 h incubation.
[4] abbreviates: concentration reducing total cell area by 50% relative to DMSO controls, methylene blue, absorbance 620 nm, 72 h incubation.

Take `CCCS(=O)(=O)N1CCN(Cc2ccc(NC(=O)c3ccc(-c4cc(NC(=O)C5CC5)ccc4OC(F)(F)F)cc3)cc2)CC1` [Example 237, 5′-(Cyclopropanecarbonyl-amino)-2′-trifluoromethoxy-biphenyl-4-carboxylic acid {4-[4-(propane-1-sulfonyl)-piperazin-1-ylmethyl]-phenyl}-amide]: the IC50 in series [1] (setting [3]) was < 1000 nM. Besides, in series [2] (setting [4]), the TD50 entry was “* (* < 50 μM)”.

In the case of `Cc1ccc(NC(=O)N2CCOCC2)cc1-c1ccc(C(=O)Nc2ccc(CN3CCS(=O)(=O)CC3)cc2)cc1` [Example 152, Morpholine-4-carboxylic acid {4′-[4-(1,1-dioxo-1lambda*6*-thiomorpholin-4-ylmethyl)-phenylcarbamoyl]-6-methyl-biphenyl-3-yl}-amide], the IC50 in series [1] (setting [3]) was < 1000 nM. Further, in series [2] (setting [4]), the TD50 entry is reported as “** (** > 50 μM)”.

For `CCCS(=O)(=O)N1CCN(Cc2ccc(NC(=O)c3ccc(-c4cc(C(=O)Nc5ccc(N6CCOCC6)cc5)ccc4OC)cc3)cc2)CC1` [Example 257, 6-Methoxy-biphenyl-3,4′-dicarboxylic acid 3-[(4-morpholin-4-yl-phenyl)-amide] 4′-({4-[4-(propane-1-sulfonyl)-piperazin-1-ylmethyl]-phenyl}-amide)], the IC50 in series [1] is < 1000 nM. In addition, the TD50 result in series [2] (setting [4]) was “* (* < 50 μM)”.

In the case of `O=C(Nc1ccc(CN2CCS(=O)(=O)CC2)cc1)c1ccc(-c2cccc(NC(=O)C3CC3)c2)cc1` [Example 168, 3′-(Cyclopropanecarbonyl-amino)-biphenyl-4-carboxylic acid [4-(1,1-dioxo-1lambda*6*-thiomorpholin-4-ylmethyl)-phenyl]-amide], the IC50 in series [1] (setting [3]) is < 1000 nM. The TD50 entry in series [2] (setting [4]) is listed as “* (* < 50 μM)”.

`Cc1ccc(C(=O)NC2CC2)cc1-c1ccc(C(=O)Nc2ccc(N3CCOCC3)cc2)cc1` [Example 17, 6-Methyl-biphenyl-3,4′-dicarboxylic acid 3-cyclopropylamide 4′-[(4-morpholin-4-yl-phenyl)-amide]]: the IC50 in series [1] was 1000 to 5000 nM. Besides, the TD50 result in series [2] is on record as “* (key: * < 50 μM; ** > 50 μM)”.

Turning to `Cc1ccc(CNc2ccc3cn[nH]c3c2)cc1-c1ccc(C(=O)Nc2ccc(CN3CCS(=O)(=O)CC3)cc2)cc1` [Example 197, 5′-[(1H-Indazol-6-ylamino)-methyl]-2′-methyl-biphenyl-4-carboxylic acid [4-(1,1-dioxo-1lambda*6*-thiomorpholin-4-ylmethyl)-phenyl]-amide], the IC50 in series [1] (setting [3]) is < 1000 nM. The TD50 result in series [2] (setting [4]) is “** (** > 50 μM)”.

For `COc1ccc(S(=O)(=O)Nc2ccc(N3CCOCC3)cc2)cc1-c1ccc(C(=O)Nc2ccc(CN3CCN(S(=O)(=O)C(C)C)CC3)cc2)cc1` [Example 246, 2′-Methoxy-5′-(4-morpholin-4-yl-phenylsulfamoyl)-biphenyl-4-carboxylic acid [4-(4-propane-2-sulfonyl-piperazin-1-ylmethyl)-phenyl]-amide], the IC50 in series [1] (setting [3]) was < 1000 nM. For the same molecule, the TD50 result in series [2] (setting [4]) is reported as “* (* < 50 μM)”.

For the molecule `Cc1ccc(C(=O)Nc2ccc(N3CCOCC3)cc2)cc1-c1ccc(C(=O)Nc2ccc(-c3cc[nH]n3)cc2)cc1` [Example 56, 6-Methyl-biphenyl-3,4′-dicarboxylic acid 3-[(4-morpholin-4-yl-phenyl)-amide] 4′-{[4-(1H-pyrazol-3-yl)-phenyl]-amide}], the 50% inhibitory concentration (IC50) in series [1] is < 1000 nM. Further, the TD50 entry in series [2] is reported as “* (key: * < 50 μM; ** > 50 μM)”.

As for `CNS(=O)(=O)c1ccc(NC(=O)c2ccc(-c3cc(C(=O)Nc4ccc(N5CCOCC5)cc4)ccc3C)cc2)cc1` [Example 29, 6-Methyl-biphenyl-3,4′-dicarboxylic acid 4′-[(4-methylsulfamoyl-phenyl)-amide] 3-[(4-morpholin-4-yl-phenyl)-amide]], the IC50 in series [1] is < 1000 nM. Also, the TD50 entry in series [2] is given as “** (key: * < 50 μM; ** > 50 μM)”.

In series [1], `Cc1ccc(C(=O)Nc2ccc(N3CCOCC3)cc2)cc1-c1ccc(C(=O)Nc2ccc(CN3CCNCC3)cc2)cc1` [Example 82, 6-Methyl-biphenyl-3,4′-dicarboxylic acid 3-[(4-morpholin-4-yl-phenyl)-amide] 4′-[(4-piperazin-1-ylmethyl-phenyl)-amide]] displayed an IC50 of 1000 to 5000 nM. In addition, the TD50 entry in series [2] is on record as “* (key: * < 50 μM; ** > 50 μM)”.

Turning to `Cc1ccc(NC(=O)c2ccco2)cc1-c1ccc(C(=O)Nc2ccc(N3CCOCC3)cc2)cc1` [Example 18, Furan-2-carboxylic acid [6-methyl-4′-(4-morpholin-4-yl-phenylcarbamoyl)-biphenyl-3-yl]-amide], in series [1] (setting [3]), the IC50 fell in the range of 1000 to 5000 nM. For the same molecule, the TD50 entry in series [2] (setting [4]) is “* (* < 50 μM)”.

In turn, `Cc1ccc(C(=O)Nc2ccc(N3CCOCC3)cc2)cc1-c1ccc(C(=O)NCc2cccc(Cl)c2F)cc1` [Example 57, 6-Methyl-biphenyl-3,4′-dicarboxylic acid 4′-(3-chloro-2-fluoro-benzylamide) 3-[(4-morpholin-4-yl-phenyl)-amide]] yielded an IC50 in series [1] of 1000 to 5000 nM. In addition, the TD50 entry in series [2] was “** (key: * < 50 μM; ** > 50 μM)”.

Consider `Cc1ccc(C(=O)Nc2ccc(N3CCOCC3)cc2)cc1-c1ccc(C(=O)Nc2cccc(CN3CCSCC3)c2)cc1` [Example 69, 6-Methyl-biphenyl-3,4′-dicarboxylic acid 3-[(4-morpholin-4-yl-phenyl)-amide] 4′-[(3-thiomorpholin-4-ylmethyl-phenyl)-amide]], for which the IC50 in series [1] is < 1000 nM. In addition, in series [2], the TD50 entry was “* (key: * < 50 μM; ** > 50 μM)”.

As to `Cc1ccc(NC(=O)c2ccc(Br)cc2)cc1-c1ccc(C(=O)Nc2ccc(CN3CCS(=O)(=O)CC3)cc2)cc1` [Example 154, 5′-(4-Bromo-benzoylamino)-2′-methyl-biphenyl-4-carboxylic acid [4-(1,1-dioxo-1lambda*6*-thiomorpholin-4-ylmethyl)-phenyl]-amide], the IC50 in series [1] (setting [3]) was < 1000 nM. The TD50 entry in series [2] (setting [4]) is given as “* (* < 50 μM)”.

As to `Cc1ccc(C(=O)Nc2ccc(N3CCOCC3)cc2)cc1-c1ccc(NC(=O)c2nc3ccccc3nc2O)cc1` [Example 104, 3-Hydroxy-quinoxaline-2-carboxylic acid [2′-methyl-5′-(4-morpholin-4-yl-phenylcarbamoyl)-biphenyl-4-yl]-amide], the IC50 in series [1] (setting [3]) is 1000 to 5000 nM. Also, the TD50 result in series [2] (setting [4]) is reported as “** (** > 50 μM)”.

In the case of `CCN(CC)CCNC(=O)c1ccc(NC(=O)c2ccc(-c3cc(C(=O)NC4CC4)ccc3C)cc2)cc1` [Example 208, 6-Methyl-biphenyl-3,4′-dicarboxylic acid 3-cyclopropylamide 4′-{[4-(2-diethylamino-ethylcarbamoyl)-phenyl]-amide}], the IC50 in series [1] is > 5000 nM. Further, the TD50 result in series [2] was “* (key: * < 50 μM; ** > 50 μM)”.

`Cc1ccc(C(=O)Nc2ccc(N3CCOCC3)cc2)cc1-c1ccc(C(=O)Nc2cccc(CN3CCS(=O)(=O)CC3)c2)cc1` [Example 136, 6-Methyl-biphenyl-3,4′-dicarboxylic acid 4′-{[3-(1,1-dioxo-1lambda*6*-thiomorpholin-4-ylmethyl)-phenyl]-amide} 3-[(4-morpholin-4-yl-phenyl)-amide]] displayed an IC50 in series [1] of 1000 to 5000 nM. Besides, the TD50 result in series [2] was “* (key: * < 50 μM; ** > 50 μM)”.

Take `Cc1ccc(C(=O)NCCC(C)C)cc1-c1ccc(C(=O)Nc2ccc(CN3CCS(=O)(=O)CC3)cc2)cc1` [Example 122, 6-Methyl-biphenyl-3,4′-dicarboxylic acid 4′-{[4-(1,1-dioxo-1lambda*6*-thiomorpholin-4-ylmethyl)-phenyl]-amide} 3-[(3-methyl-butyl)-amide]]: the IC50 in series [1] was < 1000 nM. Also, the TD50 result in series [2] is “* (key: * < 50 μM; ** > 50 μM)”.

Take `O=C(Nc1ccc(CN2CCS(=O)(=O)CC2)cc1)c1ccc(-c2cc(NC(=O)C3CC3)ccc2Cl)cc1` [Example 194, 2′-Chloro-5′-(cyclopropanecarbonyl-amino)-biphenyl-4-carboxylic acid [4-(1,1-dioxo-1lambda*6*-thiomorpholin-4-ylmethyl)-phenyl]-amide]: the IC50 in series [1] (setting [3]) is < 1000 nM. In series [2] (setting [4]), the TD50 entry is listed as “* (* < 50 μM)”.

In the case of `CS(=O)(=O)N1CCN(Cc2ccc(NC(=O)c3ccc(-c4cc(NC(=O)NC5CCCCC5)ccc4OC(F)(F)F)cc3)cc2)CC1` [Example 235, 5′-(3-Cyclohexyl-ureido)-2′-trifluoromethoxy-biphenyl-4-carboxylic acid [4-(4-methanesulfonyl-piperazin-1-ylmethyl)-phenyl]-amide], the IC50 in series [1] (setting [3]) was < 1000 nM. For the same molecule, the TD50 entry in series [2] (setting [4]) is reported as “* (* < 50 μM)”.

For `CCCS(=O)(=O)N1CCN(Cc2ccc(NC(=O)c3ccc(-c4cc(NC(=O)[C@H]5CCCCN5)ccc4OC(F)(F)F)cc3)cc2)CC1` [Example 234, (R)-Piperidine-2-carboxylic acid (4′-{4-[4-(propane-1-sulfonyl)-piperazin-1-ylmethyl]-phenylcarbamoyl}-6-trifluoromethoxy-biphenyl-3-yl)-amide], the IC50 in series [1] (setting [3]) is < 1000 nM. Further, in series [2] (setting [4]), the TD50 entry was “* (* < 50 μM)”.

Turning to `Cc1ccc(NC(=O)c2ccco2)cc1-c1ccc(C(=O)Nc2ccc3cc[nH]c3c2)cc1` [Example 233, Furan-2-carboxylic acid [4′-(1H-indol-6-ylcarbamoyl)-6-methyl-biphenyl-3-yl]-amide], in series [1] (setting [3]), the IC50 is < 1000 nM. The TD50 entry in series [2] (setting [4]) is on record as “* (* < 50 μM)”.

Consider `CNCC(=O)Nc1ccc(OC(F)(F)F)c(-c2ccc(C(=O)Nc3ccc(CN4CCN(S(=O)(=O)N(C)C)CC4)cc3)cc2)c1` [Example 240, 5′-(2-Methylamino-acetylamino)-2′-trifluoromethoxy-biphenyl-4-carboxylic acid [4-(4-dimethylsulfamoyl-piperazin-1-ylmethyl)-phenyl]-amide], for which the IC50 in series [1] (setting [3]) is < 1000 nM. Besides, the TD50 result in series [2] (setting [4]) is on record as “* (* < 50 μM)”.

In the case of `CS(=O)(=O)N1CCN(Cc2ccc(NC(=O)c3ccc(-c4cc(NC(=O)[C@@H]5CCN5C(=O)O)ccc4OC(F)(F)F)cc3)cc2)CC1` [Example 241, (S)-2-{4′-[4-(4-Methanesulfonyl-piperazin-1-ylmethyl)-phenylcarbamoyl]-6-trifluoromethoxy-biphenyl-3-ylcarbamoyl}-azetidine-1-carboxylic acid], the half-inhibitory concentration (IC50) in series [1] (setting [3]) was < 1000 nM. The TD50 result in series [2] (setting [4]) was “* (* < 50 μM)”.

(Values after patent US8008303B2, “Biphenyl derivatives and their use in treating hepatitis C” (AstraZeneca AB, priority 2005, dated 2011).)
